Reference: patent US12030904B2 (priority 2020, dated 2024)

How the values were obtained:
[1] = test system: Recombinant Respiratory Syncytial virus strain A2 containing the firefly luciferase reporter (RSV-Fluc); assay: microbe, parasite or virus in culture; format: cell-based; settings: human respiratory syncytial virus, NHBE, read-out: RSV EC50, Table 4
[2] = test system: SARS-CoV-2; assay: microbe, parasite or virus in culture; format: cell-based; settings: Severe acute respiratory syndrome coronavirus 2, read-out: SARS EC50
[3] = MT4 cytotoxicity (CC50); settings: human, MT4 cells, MT4 CC50, Table 4

CCCCCCCCCCCCCCCCCCOC[C@@H](COP(=O)(O)OC[C@H]1O[C@@](C#N)(c2ccc3c(N)ncnn23)[C@H](O)[C@@H]1O)OCc1cc(F)cc(C#N)c1 [Example 93, ((2R,3S,4R,5R)-5-(4-aminopyrrolo[2,1-f][1,2,4]triazin-7-yl)-5-cyano-3,4-dihydroxytetrahydrofuran-2-yl)methyl ((S)-2-((3-cyano-5-fluorobenzyl)oxy)-3-(octadecyloxy)propyl) hydrogen phosphate]
EC50 [1]: 79 nM
EC50 [2]: 450 nM
CC50 [3]: 1730 nM

CCCCCCCCCCCCCCCCCOC[C@H](COP(=O)(O)OC[C@H]1O[C@@](C#N)(c2ccc3c(N)ncnn23)[C@H](O)[C@@H]1O)OCc1ccc(C#N)c(F)c1 [Example 94, ((2R,3S,4R,5R)-5-(4-aminopyrrolo[2,1-f][1,2,4]triazin-7-yl)-5-cyano-3,4-dihydroxytetrahydrofuran-2-yl)methyl ((R)-2-((4-cyano-3-fluorobenzyl)oxy)-3-(heptadecyloxy)propyl) hydrogen phosphate]
EC50 [1]: 38 nM
EC50 [2]: 38 nM
CC50 [3]: 273 nM

CCCCCCCCCCCCCCCCOC[C@H](COP(=O)(O)OC[C@H]1O[C@@](C#N)(c2ccc3c(N)ncnn23)[C@H](O)[C@@H]1O)OCc1cccc(C#N)c1 [Example 95, ((2R,3S,4R,5R)-5-(4-aminopyrrolo[2,1-f][1,2,4]triazin-7-yl)-5-cyano-3,4-dihydroxytetrahydrofuran-2-yl)methyl ((R)-2-((3-cyanobenzyl)oxy)-3-(hexadecyloxy)propyl) hydrogen phosphate]
EC50 [1]: 20 nM
EC50 [2]: 37 nM
CC50 [3]: 252 nM

CCCCCCCCCCCCCCCCOC[C@H](COP(=O)(O)OC[C@H]1O[C@@](C#N)(c2ccc3c(N)ncnn23)[C@H](O)[C@@H]1O)OCc1ccc(C#N)cc1 [Example 96, ((2R,3S,4R,5R)-5-(4-aminopyrrolo[2,1-f][1,2,4]triazin-7-yl)-5-cyano-3,4-dihydroxytetrahydrofuran-2-yl)methyl ((R)-2-((4-cyanobenzyl)oxy)-3-(hexadecyloxy)propyl) hydrogen phosphate]
EC50 [1]: 23 nM
EC50 [2]: 43 nM
CC50 [3]: 511 nM

CCCCCCCCCCCCCCCCOC[C@H](COP(=O)(O)OC[C@H]1O[C@@](C#N)(c2ccc3c(N)ncnn23)[C@H](O)[C@@H]1O)OCc1ccc(OC)cc1 [Example 97, ((2R,3S,4R,5R)-5-(4-aminopyrrolo[2,1-f][1,2,4]triazin-7-yl)-5-cyano-3,4-dihydroxytetrahydrofuran-2-yl)methyl ((R)-3-(hexadecyloxy)-2-((4-methoxybenzyl)oxy)propyl) hydrogen phosphate]
EC50 [1]: 40 nM
EC50 [2]: 99 nM
CC50 [3]: 652 nM

CCCCCCCCCCCCCCCCCCOC[C@H](COP(=O)(O)OC[C@H]1O[C@@](C#N)(c2ccc3c(N)ncnn23)[C@H](O)[C@@H]1O)OCc1ccc(F)c(C#N)c1 [Example 98, [(2R,3S,4R,5R)-5-(4-aminopyrrolo[2,1-f][1,2,4]triazin-7-yl)-5-cyano-3,4-dihydroxy-tetrahydrofuran-2-yl]methyl [(2R)-2-[(3-cyano-4-fluoro-phenyl)methoxy]-3-octadecoxy-propyl] hydrogen phosphate]
EC50 [1]: 1000 nM
EC50 [2]: 1300 nM
CC50 [3]: 8980 nM

CCCCCCCCCCCCCCCCCCOC[C@H](COP(=O)(O)OC[C@H]1O[C@@](C#N)(c2ccc3c(N)ncnn23)[C@H](O)[C@@H]1O)Oc1cccc(C#N)n1 [Example 100, [(2R,3S,4R,5R)-5-(4-aminopyrrolo[2,1-f][1,2,4]triazin-7-yl)-5-cyano-3,4-dihydroxy-tetrahydrofuran-2-yl]methyl [(2R)-2-[(6-cyano-2-pyridyl)oxy]-3-octadecoxy-propyl]hydrogen phosphate]
EC50 [1]: 58 nM
EC50 [2]: 340 nM
CC50 [3]: 1180 nM

CCCCCCCCCCCCCCOC[C@H](COP(=O)(O)OC[C@H]1O[C@@](C#N)(c2ccc3c(N)ncnn23)[C@H](O)[C@@H]1O)OCc1ccc(C#N)cc1F [Example 101, [(2R,3S,4R,5R)-5-(4-aminopyrrolo[2,1-f][1,2,4]triazin-7-yl)-5-cyano-3,4-dihydroxy-tetrahydrofuran-2-yl]methyl [(2R)-2-[(4-cyano-2-fluoro-phenyl)methoxy]-3-tetradecoxy-propyl] hydrogen phosphate]
EC50 [1]: 20 nM
EC50 [2]: 130 nM
CC50 [3]: 5110 nM

CCCCCCCCCCCCCCCOC[C@H](COP(=O)(O)OC[C@H]1O[C@@](C#N)(c2ccc3c(N)ncnn23)[C@H](O)[C@@H]1O)OCc1ccc(C#N)cc1F [Example 102, [(2R,3S,4R,5R)-5-(4-aminopyrrolo[2,1-f][1,2,4]triazin-7-yl)-5-cyano-3,4-dihydroxy-tetrahydrofuran-2-yl]methyl [(2R)-2-[(4-cyano-2-fluoro-phenyl)methoxy]-3-pentadecoxy-propyl] hydrogen phosphate]
EC50 [1]: 21 nM
EC50 [2]: 120 nM
CC50 [3]: 4500 nM

CCCCCCCCCCCCCCCCCCOC[C@H](COP(=O)(O)OC[C@H]1O[C@@](C#N)(c2ccc3c(N)ncnn23)[C@H](O)[C@@H]1O)OCc1ccc(C#N)cc1Cl [Example 103, [(2R,3S,4R,5R)-5-(4-Aminopyrrolo[2,1-f][1,2,4]triazin-7-yl)-5-cyano-3,4-dihydroxy-tetrahydrofuran-2-yl]methyl [(2R)-2-[(2-chloro-4-cyano-phenyl)methoxy]-3-octadecoxy-propyl] hydrogen phosphate]
EC50 [1]: 387 nM
EC50 [2]: 10000 nM
CC50 [3]: 50000 nM

CCCCCCCCCCCCCCCCCCOC[C@H](COP(=O)(O)OC[C@H]1O[C@@](C#N)(c2ccc3c(N)ncnn23)[C@H](O)[C@@H]1O)OCc1cc(C#N)ccc1OC [Example 104, [(2R,3S,4R,5R)-5-(4-Aminopyrrolo[2,1-f][1,2,4]triazin-7-yl)-5-cyano-3,4-dihydroxy-tetrahydrofuran-2-yl]methyl [(2R)-2-[(5-cyano-2-methoxy-phenyl)methoxy]-3-octadecoxy-propyl] hydrogen phosphate]
EC50 [1]: 222 nM
EC50 [2]: 1300 nM
CC50 [3]: 2550 nM

CCCCCCCCCCCCCCCCCCOC[C@H](COP(=O)(O)OC[C@H]1O[C@@](C#N)(c2ccc3c(N)ncnn23)[C@H](O)[C@@H]1O)OCc1ccc(C#N)cc1C(F)(F)F [Example 105, [(2R,3S,4R,5R)-5-(4-Aminopyrrolo[2,1-f][1,2,4]triazin-7-yl)-5-cyano-3,4-dihydroxy-tetrahydrofuran-2-yl]methyl [(2R)-2-[[4-cyano-2-(trifluoromethyl)phenyl]methoxy]-3-octadecoxy-propyl] hydrogen phosphate]
EC50 [1]: 553 nM
EC50 [2]: 10000 nM
CC50 [3]: 20100 nM

CCCCCCCCCCCCCCCCCCOC[C@H](COP(=O)(O)OC[C@H]1O[C@@](C#N)(c2ccc3c(N)ncnn23)[C@H](O)[C@@H]1O)OCc1cc(C#N)cc(OC)c1 [Example 106, [(2R,3S,4R,5R)-5-(4-Aminopyrrolo[2,1-f][1,2,4]triazin-7-yl)-5-cyano-3,4-dihydroxy-tetrahydrofuran-2-yl]methyl [(2R)-2-[(3-cyano-5-methoxy-phenyl)methoxy]-3-octadecoxy-propyl] hydrogen phosphate]
EC50 [1]: 88 nM
EC50 [2]: 10000 nM
CC50 [3]: 871 nM

CCCCCCCCCCCCCCCCCCOC[C@H](COP(=O)(O)OC[C@H]1O[C@@](C#N)(c2ccc3c(N)ncnn23)[C@H](O)[C@@H]1O)OCc1cccc(C#N)n1 [Example 107, [(2R,3S,4R,5R)-5-(4-Aminopyrrolo[2,1-f][1,2,4]triazin-7-yl)-5-cyano-3,4-dihydroxy-tetrahydrofuran-2-yl]methyl [(2R)-2-[(6-cyano-2-pyridyl)methoxy]-3-octadecoxy-propyl] hydrogen phosphate]
EC50 [1]: 80 nM
EC50 [2]: 370 nM
CC50 [3]: 885 nM

CCCCCCCCCCCCCCCCCCOC[C@H](COP(=O)(O)OC[C@H]1O[C@@](C#N)(c2ccc3c(N)ncnn23)[C@H](O)[C@@H]1O)OCc1ccc(Cl)c(C#N)c1 [Example 108, [(2R,3S,4R,5R)-5-(4-aminopyrrolo[2,1-f][1,2,4]triazin-7-yl)-5-cyano-3,4-dihydroxy-tetrahydrofuran-2-yl]methyl [(2R)-2-[(4-chloro-3-cyano-phenyl)methoxy]-3-octadecoxy-propyl] hydrogen phosphate]
EC50 [1]: 83 nM
EC50 [2]: 220 nM
CC50 [3]: 713 nM

CCCCCCCCCCCCCCCCCOCC[C@H](COP(=O)(O)OC[C@H]1O[C@@](C#N)(c2ccc3c(N)ncnn23)[C@H](O)[C@@H]1O)OCc1ccc(C#N)cc1 [Example 111, [(2R,3S,4R,5R)-5-(4-Aminopyrrolo[2,1-f][1,2,4]triazin-7-yl)-5-cyano-3,4-dihydroxy-tetrahydrofuran-2-yl]methyl [(2R)-2-[(4-cyanophenyl)methoxy]-4-heptadecoxy-butyl] hydrogen phosphate]
EC50 [1]: 499 nM
EC50 [2]: 3500 nM
CC50 [3]: 18900 nM

CCCCCCCCCCCCCCCCOC[C@H](COP(=O)(O)OC[C@H]1O[C@@](C#N)(c2ccc3c(N)ncnn23)[C@H](O)[C@@H]1O)OCc1ccc(C#N)cc1F [Example 112, [(2R,3S,4R,5R)-5-(4-Aminopyrrolo[2,1-f][1,2,4]triazin-7-yl)-5-cyano-3,4-dihydroxy-tetrahydrofuran-2-yl]methyl [(2R)-2-[(4-cyano-2-fluoro-phenyl)methoxy]-3-hexadecoxy-propyl] hydrogen phosphate]
EC50 [1]: 63 nM
EC50 [2]: 130 nM
CC50 [3]: 1940 nM

CCCCCCCCCCCCCCCCOC[C@H](COP(=O)(O)OC[C@H]1O[C@@](C#N)(c2ccc3c(N)ncnn23)[C@H](O)[C@@H]1O)OCc1ccc(C#N)c(F)c1 [Example 113, [(2R,3S,4R,5R)-5-(4-aminopyrrolo[2,1-f][1,2,4]triazin-7-yl)-5-cyano-3,4-dihydroxy-tetrahydrofuran-2-yl]methyl [(2R)-2-[(4-cyano-3-fluoro-phenyl)methoxy]-3-hexadecoxy-propyl] hydrogen phosphate]
EC50 [1]: 210 nM
EC50 [2]: 1100 nM
CC50 [3]: 5450 nM
